# Reference: PubChem BioAssay (NCI)
#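 Growth conditions: 96-well plates. Treatment: test compound, 48 hours, 5 concentrations. Analysis: linear interpolation between bracketing concentrations; unreached endpoints set to highest concentration. Here, GI50 denotes the concentration required for 50% inhibition of growth. Definition used: TGI = concentration required for complete inhibition of growth.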
# Legend:
# Assay in all cases: NCI-60 cell line screen, 48 h
# CAKI-1 renal = tested on: CAKI-1 renal
# COLO 205 colon = tested on: COLO 205 colon
# DU-145 prostate = tested on: DU-145 prostate
# HL-60(TB) leukemia = tested on: HL-60(TB) leukemia
# KM12 colon = tested on: KM12 colon
# NCI-H522 lung = tested on: NCI-H522 lung
# RXF 393 renal = tested on: RXF 393 renal
# SR leukemia = tested on: SR leukemia
# SW-620 colon = tested on: SW-620 colon
# HOP-92 NSCLC = tested on: HOP-92 NSCLC
SMILES,GI50 (CAKI-1 renal) [µM],TGI (CAKI-1 renal) [µM],GI50 (COLO 205 colon) [µM],TGI (COLO 205 colon) [µM],GI50 (DU-145 prostate) [µM],TGI (DU-145 prostate) [µM],GI50 (HL-60(TB) leukemia) [µM],TGI (HL-60(TB) leukemia) [µM],GI50 (KM12 colon) [µM],TGI (KM12 colon) [µM],GI50 (NCI-H522 lung) [µM],TGI (NCI-H522 lung) [µM],GI50 (RXF 393 renal) [µM],TGI (RXF 393 renal) [µM],GI50 (SR leukemia) [µM],TGI (SR leukemia) [µM],GI50 (SW-620 colon) [µM],TGI (SW-620 colon) [µM],GI50 (HOP-92 NSCLC) [µM],TGI (HOP-92 NSCLC) [µM]
O=Nc1c(O)ccc2ccccc12,3.1,12.1,7.81,21.8,3.5,10.5,2.42,6.04,5.26,18.4,2.06,4.25,6.54,19.5,2.16,5.86,2.46,8.04,,
COc1ccc(C(O)c2cc3c(N)c(C(=O)Nc4cccc(Br)c4)sc3nc2C)cc1 (stereo unspecified),0.141,> 32,0.127,0.773,0.128,11.9,0.085,0.242,0.117,,0.0814,1.85,,,0.0979,> 32.7,0.126,> 100,0.554,21.3
O=c1[nH]c(=S)[nH]c(O)c1/C=C1\C=CC=N1,,25.6,,32,,,,> 100,,39.6,,3.59,,9.6,,18,,23.5,,36.1
Fc1ccc(-c2ncn(C3CCNCC3)c2-c2ccnc(Oc3cccc(F)c3)n2)cc1,17.9,> 25,5.09,9.67,> 21.3,> 25,> 16.6,> 25,13.6,> 25,> 14.7,> 25,5.32,> 13.3,,,5.54,> 14.7,,
C=C(C)C1/C=C(/C(C)C)CC[C@]2(C)O[C@@H]2CC[C@H](C)CC1=O (stereo partly specified),35.3,> 100,54.5,> 100,49.6,> 100,,,58.1,> 100,> 100,> 100,32,> 100,19.2,58.5,,,99.5,> 100
COC(=O)CCC1=C(C)c2cc3[n-]c(cc4nc(cc5[n-]c(cc1n2)c(CCC(=O)OC)c5C)C=C4C)cc3C.[Cd+2],12.4,38.1,2.64,6.9,4.5,10.4,,,3.46,13.6,0.265,0.754,2.88,10.9,3.16,8.91,4.44,18.4,16.7,40
COc1cc2c(cc1C)n(O)c(C)c(C(=O)C/C(=N/NC(=O)C[N+](C)(C)C)C(=O)Nc1cccc(Cl)c1C)[n+]2=O,,> 100,,> 100,,,,> 100,,> 100,,> 100,,> 100,,> 100,,> 100,,> 100
CCOC(=O)C(C[Si](C)(C)C)P(=O)(OCC)OCC (stereo unspecified),,> 100,,> 100,,,,> 100,,> 100,,> 100,,> 100,,> 100,,> 100,,> 100
O=Cc1coc2ccccc2c1=O,,52.9,,30.4,,> 100,,42.3,,69.9,,48.1,,40.2,,,,41.5,,
O=C(NNS(=O)(=O)c1cc(C(F)(F)F)cc(C(F)(F)F)c1)c1cnn(-c2ccc(Cl)cc2)c1C(F)(F)F,26.2,57.2,17.4,34.8,18.6,44.1,20.7,45.6,18.5,39.9,18.8,43.1,,,19.4,42,17.7,38.7,14.8,31.8
COc1ccc(/C=C2\COc3ccc(-c4ccccc4)cc3C2=O)cc1O,4.61,32.9,3.68,21.9,2.49,9.69,2.29,> 100,1.75,4.09,2.4,10.5,,,2,> 100,1.82,3.72,2.55,18.9
CC1OC(O)C(O)C(O)C1O (stereo unspecified),,> 100,,> 100,,> 100,,,,> 100,,> 100,,> 100,,,,> 100,,> 100
CCS/C(Nc1ccccc1)=C(\C#N)C(=O)Nc1ccc(OC)cc1,3.39,> 100,3.06,11.2,3.48,49.8,2.87,> 100,2.8,> 100,2.2,9.68,2.24,7.86,1.54,> 100,2.55,> 100,,
C[Si](C)(C)/C=C/CN1C(=O)CCC1O (stereo unspecified),,> 100,,> 100,,,,> 100,,> 100,,> 100,,> 100,,> 100,,> 100,,> 100
CC(=O)/C(C)=N/N/C(N)=N\S(=O)(=O)c1cc(C(=O)Nc2ccccc2)c(Cl)cc1SCc1ccccc1,> 100,> 100,> 100,> 100,3.5,> 100,2.36,24.2,60.2,> 100,64.7,> 100,,,6.2,> 100,,,,
CC(=O)OC1CCC2(C)C(=CC(C3C=C4CC(OC(C)=O)CCC4(C)C4=C3C3CC5OC6(CCC(C)CO6)C(C)C5C3(C)CC4)C3=C2CCC2(C)C3CC3OC4(CCC(C)CO4)C(C)C32)C1 (stereo unspecified),,32.1,,36.1,,27.2,,,,35.7,,19.4,,31.5,,28.3,,,,27.1
CC(C)(C)CC(C)(C)c1ccc(OCCOCCSC(=N)N)cc1,2.28,5.87,1.65,3.12,1.84,3.34,1.79,3.58,1.78,3.33,1.71,3.18,1.78,3.59,,,1.65,3.34,1.89,7.92
